Among the data in ChEMBL document CHEMBL3507680, “University of Dundee, Gates Library screen for HepG2 cell viability” are cytotoxicity values, retold here.

A short description of this data set: Human HepG2 cell viability assay in 384 well format. Format: toxicity, cell-based. As to conditions: HepG2 cells, read-out: Inhibition. Also on record: dose 125 nL, time 70.5 hour; cytotoxicity at 70.5 h: concentration not given beside the values.
In the case of `COc1cccc(C(=O)N2CCc3c(nc(N)[nH]c3=O)C2)c1OC`, the cytotoxicity at 70.5 h is -2.24%.

`CC(NC(=O)CCc1cccc(OC2CCCC2)c1)c1nncn1C` (centres undefined): the cytotoxicity at 70.5 h amounted to 2.36%.

On to `Cc1nc(C2CCCN2CC(=O)N(Cc2ccsc2)C2CC2)no1` (centres undefined), for which the cytotoxicity at 70.5 h was -5.17%.

For the compound `CN1C(=O)CC[C@]12CC[C@@H](NC(=O)NCc1cccnc1)CC2`, the cytotoxicity at 70.5 h is -4%.

As for `CC(=O)N1CCN(Cc2ccsc2)CC2(CC(=O)N(C)C2)C1` (centres undefined), the cytotoxicity at 70.5 h is -12.2%.

For `C1CC1c1nsc(N2CCN(C3CC3)CC2)n1`, the cytotoxicity at 70.5 h came to 1.41%.

On to `Cc1cccc(C(=O)NC(C(=O)NCc2ccc(O)nc2)C(C)C)c1` (centres undefined), for which the cytotoxicity at 70.5 h was -10.8%.

Consider `CC(NS(C)(=O)=O)C(=O)N(C)Cc1csc(-c2ccccc2)n1` (centres undefined), for which the cytotoxicity at 70.5 h was -13.9%.

On to `Cc1ccc(Cl)cc1N1CCC(CNC(=O)CCn2ccnc2)C1` (centres undefined), for which the cytotoxicity at 70.5 h was -10.1%.

On to `Cc1ccc(C(CNC(=O)c2cc(=O)c3ccccc3[nH]2)N(C)C)cc1` (centres undefined), for which the cytotoxicity at 70.5 h is -4.48%.

`COc1cc(-c2nc3c([nH]2)CCCNC3=O)ccc1OC(C)C`: the cytotoxicity at 70.5 h was -3.41%.

For the compound `Cc1cn(CC(=O)Nc2cc(C(C)(C)C)nn2C)cn1`, the cytotoxicity at 70.5 h was -5.53%.

Take `CN(C)C[C@]12COC[C@H]1CN(C(=O)Cc1ccc3c(c1)OCO3)C2`: the cytotoxicity at 70.5 h was -9.79%.

As to `Cc1csc(C(C)(C)NCc2ncc(-c3ccccc3)o2)n1`, the cytotoxicity at 70.5 h is -7.99%.

Take `COc1ccccc1OC1CCN(c2nccc(N)n2)CC1`: the cytotoxicity at 70.5 h was determined as 19.5%.

With `CCOCc1nc(N2CCCC2)sc1C(=O)NCc1ccco1`, the cytotoxicity at 70.5 h was -5.28%.

With `Cc1cccc(N2CCc3ncc(CNS(C)(=O)=O)n3CC2)n1`, the cytotoxicity at 70.5 h was -11.6%.

Consider `Cc1ccc(C(=O)N2CCC(n3cc(CO)nn3)CC2)cn1`, for which the cytotoxicity at 70.5 h is 11%.

Turning to `O=C(c1ccc2[nH]cnc2c1)N1CCC(Oc2ccccn2)CC1`, the cytotoxicity at 70.5 h worked out at 1.58%.

As for `OCCN(Cc1ccncc1)CC1(c2ccc(Cl)cc2)CC1`, the cytotoxicity at 70.5 h is -4.99%.

`CN(Cc1ncnn1C)C(=O)CCCn1ccc2cc(Cl)ccc21`: the cytotoxicity at 70.5 h was -1.32%.

Turning to `CC1=CC[C@@H]2CN(C(=O)c3ccc(-c4nc[nH]n4)cc3)C[C@@H]2C1`, the cytotoxicity at 70.5 h was determined as 11%.

On to `Cc1cc(CNC(=O)C2CCC(=O)N(Cc3ccccc3F)C2)on1` (centres undefined), for which the cytotoxicity at 70.5 h was -2.07%.

In the case of `O=C1CC(c2ccc3c(c2)OCO3)c2cn[nH]c2N1` (centres undefined), the cytotoxicity at 70.5 h is -11.7%.

Regarding `Cc1cc(N2CCN(C3CCSCC3)CC2)n2nc(C)c(C)c2n1`, the cytotoxicity at 70.5 h was -5.2%.

With `Cc1cnn(CC2CCCN2C(=O)CCCc2nc(C)no2)c1` (centres undefined), the cytotoxicity at 70.5 h turned out to be 32.9%.

Turning to `CCc1nccn1C1CCCN(C(=O)c2cn3cccnc3n2)C1` (centres undefined), the cytotoxicity at 70.5 h was -11.4%.

With `CN(CC(=O)N1CCC(Oc2ccc(C(F)(F)F)cn2)CC1)S(C)(=O)=O`, the cytotoxicity at 70.5 h amounted to 0.51%.

`CCOc1ncccc1CNC(=O)N1CCCC1c1ccncc1` (centres undefined): the cytotoxicity at 70.5 h was -8.99%.

For `c1cc(CN2CCc3nc(N4CCOCC4)nc(NC4CC4)c3C2)co1`, the cytotoxicity at 70.5 h is -10.6%.

Turning to `O=C(c1cnccn1)N1C[C@@H](OCc2cccnc2)[C@H]2OCCC[C@H]21`, the cytotoxicity at 70.5 h came out at 8.16%.

Regarding `CC(=O)Nc1ccc(CN(C)Cc2snnc2C)cc1`, the cytotoxicity at 70.5 h is -5.27%.

As for `CC(c1cccnc1)N(C)Cc1ccccn1` (centres undefined), the cytotoxicity at 70.5 h was -7.62%.

As to `CCOCCn1nc(C)cc1C(=O)N1CCN(C(C)C)C(CC)C1` (centres undefined), the cytotoxicity at 70.5 h was -8.86%.

In the case of `CSc1ccc(NC(=O)Cn2cc(NC(C)=O)cn2)cc1`, the cytotoxicity at 70.5 h was -7.71%.

For the compound `Cc1ccsc1CN1C[C@@H]2COC[C@]2(COCC(=O)N(C)C)C1`, the cytotoxicity at 70.5 h is -0.655%.

Regarding `Cc1ccc(OCC(=O)NC2(C#N)CCSCC2)cc1C`, the cytotoxicity at 70.5 h was -10.6%.

For the compound `Cc1nn(C)c(N(C)C)c1CNCCCNS(C)(=O)=O`, the cytotoxicity at 70.5 h was determined as 4.14%.

With `Cc1cccc(-c2[nH]ncc2CNCC2CCN(CC(C)O)CC2)c1` (centres undefined), the cytotoxicity at 70.5 h is -4.28%.
